Data taken from patent US6180356A (priority 1998, dated 2001).

Legend:
[1] = tested on: diphtheria toxin translocation across Vero cell membranes; details: Falnes and Olsnes 1995; cited from earlier work
[2] = molecular target: T domain of diphtheria toxin (Corynephage beta, UniProt P00588); assay: biochemical; format: biochemical, Corynebacterium diphtheriae; details: for inhibition at 10 µM: read-out: inhibition of T domain membrane pore formation; for quenching of 3 kD CB-dextran: control without inhibitor about 70%
diphtheria toxin = diphtheria toxin (Corynephage beta, UniProt P00588); assay: biochemical; format: biochemical, Corynebacterium diphtheriae; details: for inhibition of 3 kD dextran release / pore formation: relative to release in absence of target agent; for inhibition of membrane pore formation (in words): whole diphtheria toxin; for quenching of the fluorescence of the 3 kD dextran: 10 μM inhibitor added before toxin, 3 kD CB-dextran, pH 4.5, control without agent about 75%; for inhibition at 10 µM: read-out: inhibition of 3 kD dextran release / pore formation
[3] = 10 μM inhibitor, about 5 μg of T domain
[4] = 10 μM inhibitor, 1.0 μg of toxin

Chain of T domain of diphtheria toxin (P00588 234-410 limits assumed): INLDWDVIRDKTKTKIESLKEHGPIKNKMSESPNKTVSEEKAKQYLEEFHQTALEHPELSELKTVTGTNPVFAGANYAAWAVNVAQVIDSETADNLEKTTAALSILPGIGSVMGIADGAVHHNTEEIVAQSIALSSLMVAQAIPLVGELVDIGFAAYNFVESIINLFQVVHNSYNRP
Chain of diphtheria toxin (P00588 33-567 limits assumed): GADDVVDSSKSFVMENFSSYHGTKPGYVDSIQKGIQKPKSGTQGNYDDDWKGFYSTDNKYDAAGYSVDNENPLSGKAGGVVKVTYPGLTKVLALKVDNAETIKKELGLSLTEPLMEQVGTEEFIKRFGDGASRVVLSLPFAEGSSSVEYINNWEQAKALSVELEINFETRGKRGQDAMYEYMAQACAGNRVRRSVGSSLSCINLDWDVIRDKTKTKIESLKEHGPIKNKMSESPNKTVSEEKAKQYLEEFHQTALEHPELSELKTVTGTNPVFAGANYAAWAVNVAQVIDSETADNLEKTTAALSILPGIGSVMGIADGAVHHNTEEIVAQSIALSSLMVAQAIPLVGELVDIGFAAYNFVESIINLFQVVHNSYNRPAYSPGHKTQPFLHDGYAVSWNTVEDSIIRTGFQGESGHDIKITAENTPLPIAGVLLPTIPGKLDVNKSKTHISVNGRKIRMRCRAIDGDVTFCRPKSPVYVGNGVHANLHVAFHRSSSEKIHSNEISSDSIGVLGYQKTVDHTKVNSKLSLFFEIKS

Row | Structure (SMILES) | inhibition of diphtheria toxin translocation [1] | inhibition of T domain membrane pore formation (in words) [2, 3] | inhibition of membrane pore formation (in words) (diphtheria toxin; 10 μM inhibitor) | quenching of the fluorescence of the 3 kD dextran (diphtheria toxin; 1.0 μg of toxin) | other results
1 | Nc1c(S(=O)(=O)O)cc(Nc2ccc(Nc3nc(Cl)nc(Nc4ccccc4S(=O)(=O)O)n3)c(S(=O)(=O)O)c2)c2c1C(=O)c1ccccc1C2=O [Cibacron Blue, Cibacron Blue F3G-A] | inhibitors of diphtheria toxin translocation | somewhat less inhibition | Strong inhibition |  | inhibition at 10 µM [2]: ~22%; quenching for all the dextrans (diphtheria toxin; 10 μM inhibitor, 1.0 μg of toxin, all the dextrans): 0%; inhibition of 3 kD dextran release / pore formation (diphtheria toxin; [4]): completely inhibited
2 | O=C(Nc1cc(S(=O)(=O)[O-])cc2cc(S(=O)(=O)[O-])c(N=Nc3cc(Nc4nc(Cl)nc(Nc5ccc(S(=O)(=O)[O-])cc5)n4)ccc3S(=O)(=O)[O-])c(O)c12)c1ccccc1.[Na+].[Na+].[Na+].[Na+] [Cibacron Red, Cibacron brilliant red 3B-A] |  | strong inhibition | strong inhibition | 0% | inhibition of T domain membrane pore formation ([2]; 10 μM inhibitor, about 5 μg of T domain, 3 kD CB-dextran): 87%; quenching of 3 kD CB-dextran [2, 3]: about 9%; inhibition of 3 kD dextran release / pore formation (diphtheria toxin; [4]): 100%
3 | O=S(=O)(O)c1cc(N=C=S)ccc1/C=C/c1ccc(N=C=S)cc1S(=O)(=O)O [DIDS] | inhibitors of diphtheria toxin translocation |  |  |  | 
4 | COc1cc(S(=O)(=O)O)c2ccc3c(S(=O)(=O)O)cc(S(=O)(=O)O)c4ccc1c2c43 [MPT, 8-methoxy-pyrene 1,3,6-trisulfonic acid] |  |  |  |  | diphtheria toxin pore formation inhibited (in words) (diphtheria toxin; MPT as entrapped reporter, higher toxin concentrations, MPT released less than 3 kD CB-dextran): inhibited
5 | CCN1C(=O)C=CC1=O [NEM] | inhibitors of diphtheria toxin translocation |  |  |  | 
6 | O=S(=O)(O)c1ccc(N=Nc2ccc(N=Nc3c(O)c(S(=O)(=O)O)cc4cc(S(=O)(=O)O)ccc34)c(S(=O)(=O)O)c2)cc1 [Ponceau S, 3-hydroxy-4-[2-sulfo-4(4-sulfophenylazo)phenylazo]-2,7-naphthalenedisulfonic acid] |  | strong inhibition | moderate inhibition | about 25% | quenching of 3 kD CB-dextran [2, 3]: about 20%; inhibition at 10 µM [2]: ~70%; inhibition at 10 µM (diphtheria toxin): ~67%
7 | O=S(=O)([O-])c1ccc2c(N=Nc3ccc(S(=O)(=O)[O-])c4ccccc34)c(O)c(S(=O)(=O)[O-])cc2c1.[Na+].[Na+].[Na+] [amaranth, 3-Hydroxy-4-[(4-sulfo-1-naphthalenyl)azo]2,7-naphthalenedisulfonic acid trisodium salt] |  |  | weak inhibitor | about 50% | inhibition at 10 µM (diphtheria toxin): ~30%
